# Reference: patent US9868705B2, “Tetra-aryl cyclobutane inhibitors of androgen receptor action for the treatment of hormone refractory cancer” (The Board of Trustees of the University of Illinois, priority 2013, dated 2018)
# What was measured:
# [1] = tested on: LNCaP cells; experiment: LNCaP cell proliferation
# [2] = target: T1, W741C AR (Homo sapiens, UniProt P10275, W742C); experiment: MMTV-luciferase transcription assay in CV-1 cells, W741C AR
# T1 sequence (P10275 1-920 W742C): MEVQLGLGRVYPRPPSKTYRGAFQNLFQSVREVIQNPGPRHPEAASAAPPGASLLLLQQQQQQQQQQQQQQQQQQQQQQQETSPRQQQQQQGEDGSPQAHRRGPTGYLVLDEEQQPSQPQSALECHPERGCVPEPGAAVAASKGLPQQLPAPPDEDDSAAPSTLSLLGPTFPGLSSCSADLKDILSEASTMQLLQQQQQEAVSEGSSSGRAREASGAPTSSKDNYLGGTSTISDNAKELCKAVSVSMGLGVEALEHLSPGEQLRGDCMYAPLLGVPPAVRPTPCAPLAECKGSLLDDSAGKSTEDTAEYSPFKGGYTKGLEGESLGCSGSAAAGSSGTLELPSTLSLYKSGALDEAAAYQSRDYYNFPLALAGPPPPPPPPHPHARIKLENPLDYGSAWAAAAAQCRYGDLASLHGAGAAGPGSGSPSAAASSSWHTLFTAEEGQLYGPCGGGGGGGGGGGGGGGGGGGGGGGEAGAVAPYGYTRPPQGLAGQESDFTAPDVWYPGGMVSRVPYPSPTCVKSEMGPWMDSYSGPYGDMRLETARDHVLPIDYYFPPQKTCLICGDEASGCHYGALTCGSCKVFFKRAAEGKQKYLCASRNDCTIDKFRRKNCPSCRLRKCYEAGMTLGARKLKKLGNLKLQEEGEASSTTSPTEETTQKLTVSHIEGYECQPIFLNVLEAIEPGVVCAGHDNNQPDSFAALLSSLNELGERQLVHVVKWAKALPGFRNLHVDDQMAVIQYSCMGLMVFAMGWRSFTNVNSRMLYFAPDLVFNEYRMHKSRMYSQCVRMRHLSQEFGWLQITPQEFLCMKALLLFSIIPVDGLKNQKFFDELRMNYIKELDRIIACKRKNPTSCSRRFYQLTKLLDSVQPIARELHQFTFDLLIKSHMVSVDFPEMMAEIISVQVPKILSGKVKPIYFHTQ
compound,measurement,setting,value
COc1cc([C@H]2[C@H](c3ccccc3)[C@H](c3cc(OC)nc(OC)n3)[C@H]2c2ccccc2)nc(OC)n1 [CB-22],more potent in LNCaP cells than in VCaP cells (anti-proliferative activity),[1]; LNCaP vs VCaP,10-15 fold
same,inhibition of LNCaP cell proliferation,[1]; androgen-stimulated LNCaP cells,slow cell-growth in a dose-dependent manner
same,IC50,[2],2360 nM
